Assay results taken from patent publication US10336733B2, “Aryl acylsulfonamides as BLT1 antagonists” (Merck Sharp & Dohme Corp., priority 2015, dated 2019).

Target: human BLT1 receptor (Homo sapiens (Human), UniProt Q15722)
Assay: BLT-1 cAMP Assay
Format: cell-based
Details: antagonist mode; HEK293 cells recombinantly expressing human BLT1 receptor; forskolin 4 μM and LTB4 2 nM; cAMP detection
Method: The ability of compounds to antagonize the human BLT1 receptor was determined using a kit to measure changes in intracellular cyclic AMP levels (cAMP dynamic assay kit, Cisbio Cat. No. 62AM4PEC). HEK293 cells recombinantly expressing human BLT1 receptor, previously frozen in Recovery Medium (Life Technologies, Cat. No. 12648-010) were thawed and diluted into assay medium (HBSS (Hyclone SH 30268.01), 20 mM HEPES (Gibco 15630-106), 800 μM IBMX (Sigma I5879), 0.1% DTPA BSA (Perkin Elmer CR84-100)). The cell suspension was centrifuged at 200×g for 10 min and then resuspended in fresh assay medium to a density of 2.5×10^5 cells/mL. A Labcyte Echo 550 acoustic dispenser was used to transfer 25 nL of test compound dissolved in DMSO into the wells of a dry 384-well plate (Greiner 784075). All subsequent liquid additions were performed using a BIORAPTR (FRD; Beckman Coulter). Next, 5 μL of cell suspension was added and incubated for 20 min. at 37° C. and 5% CO2 in a humidified plastic tray. To test for agonist activity […] of assay buffer containing forskolin (Sigma F-6886. 4 μM for BLT1) was added and incubated for 30 minutes at 37° C. and 5% CO2 in a humidified plastic tray. To test for antagonist activity 5 μL of assay buffer containing forskolin (Sigma F-6886. 4 μM for BLT1) and either LTB4 (Sigma Aldrich L0517; 2 nM BLT1) was added and incubated for 30 minutes at 37° C. and 5% CO2 in a humidified plastic tray.
The levels of cAMP were detected using the CisBio kit following the manufacturer's instructions: cAMP-d2 vial was reconstituted with distilled water and then diluted accordingly with conjugate & lysis buffer. 5 μL of cAMP-d2 working solution was added to all of the wells of the assay plate. cAMP-Cryptate vial was reconstituted with distilled water and then diluted accordingly with conjugate & lysis buffer. 5 μL of cAMP-Cryptate working solution were added to the assay plate. The assay plate was shaken for 3 minutes and incubated at room temperature for 45 minutes, then read on Perkin Elmer Envision. cAMP standard curve and fit data were plotted using a 4 parameter dose response curve fitting algorithm to fit curve. A 4-parameter curve fit (Max, min, log EC50 and slope) was used to transform fluorescent 665 nm/615 nm ratio signal to cAMP concentration. After normalization to treated and untreated controls, the percent effect of signal at each compound concentration was calculated. The plot of percent effect versus the log of compound concentration was fit with a 4-parameter concentration response equation to calculate EC50 values. Compound concentrations tested were 10 000, 3 333, 1 111, 370.4, 123.4, 41.2, 13.7, 4.6, 1.5 and 0.5 nM with 0.25% residual DMSO.

Sequence of human BLT1 receptor (Q15722 whole entry): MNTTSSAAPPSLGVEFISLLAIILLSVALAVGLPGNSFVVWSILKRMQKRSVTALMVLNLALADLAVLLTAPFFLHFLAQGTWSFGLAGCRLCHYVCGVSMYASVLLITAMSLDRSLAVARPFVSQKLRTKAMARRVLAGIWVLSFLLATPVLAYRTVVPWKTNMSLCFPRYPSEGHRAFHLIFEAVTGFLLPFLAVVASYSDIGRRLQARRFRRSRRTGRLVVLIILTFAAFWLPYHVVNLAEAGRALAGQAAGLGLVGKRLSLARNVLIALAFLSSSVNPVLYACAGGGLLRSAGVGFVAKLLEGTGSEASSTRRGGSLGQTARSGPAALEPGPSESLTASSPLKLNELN

Row | Structure (SMILES) | EC50 [nM]
1 | CC(C)(C)S(=O)(=O)NC(=O)c1ccccc1-c1ccc2c(c1)OC[C@@H](Cc1cscn1)[C@@H]2O (racemic) [Example 32, N-(tert-Butylsulfonyl)-2-((rac-trans)-4-hydroxy-3-(thiazol-4-ylmethyl)chroman-7-yl)benzamide] | 11
2 | O=C(NS(=O)(=O)C(F)(F)F)c1ccc(F)cc1-c1ccc2c(c1)OC[C@H](Cc1ccccn1)[C@H]2O (single isomer, unassigned) [Example 2, 4-Fluoro-2-((3S,4R or 3R,4S)-4-hydroxy-3-(pyridin-2-ylmethyl)chroman-7-yl)-N-((trifluoromethyl)sulfonyl)benzamide] | 6
3 | O=C(NS(=O)(=O)C1CC1)c1ccccc1-c1ccc2c(c1)OC[C@@H](Cc1ccccn1)[C@@H]2O (single isomer, unassigned) [Example 5, N-(Cyclopropylsulfonyl)-2-((3R,4S or 3S,4R)-4-hydroxy-3-(pyridin-2-ylmethyl)chroman-7-yl)benzamide] | 2170
4 | CC1(S(=O)(=O)NC(=O)c2ccccc2-c2ccc3c(c2)OC[C@H](Cc2ccccn2)[C@H]3O)CC1 (single isomer, unassigned) [Example 8, 2-((3S,4R or 3R,4S)-4-Hydroxy-3-(pyridin-2-ylmethyl)chroman-7-yl)-N-((1-methylcyclopropyl)sulfonyl)benzamide] | 22
5 | O=C(NS(=O)(=O)C1CC1)c1ccc(F)cc1-c1ccc2c(c1)OC[C@@H](Cc1ccccn1)[C@@H]2O (single isomer, unassigned) [Example 15, N-(Cyclopropylsulfonyl)-4-fluoro-2-((3R,4S or 3S,4R)-4-hydroxy-3-(pyridin-2-ylmethyl)chroman-7-yl)benzamide] | 480
6 | Cc1nnc(C[C@@H]2COc3cc(-c4ccccc4C(=O)NS(=O)(=O)C(C)(C)C)ccc3[C@H]2O)s1 (racemic) [Example 31, N-(tert-Butylsulfonyl)-2-((rac-trans)-4-hydroxy-3-((5-methyl-1,3,4-thiadiazol-2-yl)methyl)chroman-7-yl)benzamide] | 556
7 | CS(=O)(=O)NC(=O)c1ccc(F)cc1-c1ccc2c(c1)OC[C@H](Cc1ccccn1)[C@H]2O (single isomer, unassigned) [Example 4, 4-Fluoro-2-((3S,4R or 3R,4S)-4-hydroxy-3-(pyridin-2-ylmethyl)chroman-7-yl)-N-(methylsulfonyl)benzamide] | 93
8 | CC(C)(C)S(=O)(=O)NC(=O)c1ccc(F)cc1-c1ccc2c(c1)OC[C@@H](Cc1ccccn1)[C@@H]2O (single isomer, unassigned) [Example 13, N-(tert-Butylsulfonyl)-4-fluoro-2-((3R,4S or 3S,4R)-4-hydroxy-3-(pyridin-2-ylmethyl)chroman-7-yl)benzamide] | 441
9 | CC(C)(C)S(=O)(=O)NC(=O)c1ccccc1-c1ccc2c(c1)OC[C@H](Cc1ccccn1)[C@H]2O (single isomer, unassigned) [Example 12, N-(tert-Butylsulfonyl)-2-((3S,4R or 3R,4S)-4-hydroxy-3-(pyridin-2-ylmethyl)chroman-7-yl)benzamide] | 17
10 | O=C(NS(=O)(=O)C(F)(F)F)c1ccc(F)cc1-c1ccc2c(c1)OC[C@H](Cc1ccc(-c3ccccc3)cc1)[C@@H]2O (racemic) [Example 39, 2-((Rac-cis)-3-([1,1′-Biphenyl]-4-ylmethyl)-4-hydroxychroman-7-yl)-4-fluoro-N-((trifluoromethyl)sulfonyl)benzamide] | 37
11 | O=C(NS(=O)(=O)CC1CC1)c1ccccc1-c1ccc2c(c1)OCC(Cc1ccccn1)C2O (stereo not drawn) [Example 18, N-((Cyclopropylmethyl)sulfonyl)-2-((3,4-trans)-4-hydroxy-3-(pyridin-2-ylmethyl)chroman-7-yl)benzamide] | 23
12 | CC1(S(=O)(=O)NC(=O)c2ccccc2-c2ccc3c(c2)OC[C@@H](Cc2coc(-c4ccccc4)n2)[C@@H]3O)CC1 (racemic) [Example 43, 2-(Rac-trans)-4-hydroxy-3-((2-phenyloxazol-4-yl)methy)chroman-7-yl)-N-((1-methylcyclopropyl)sulfonyl)benzamide] | 19
13 | O=C(NS(=O)(=O)C(F)(F)F)c1ccc(F)cc1-c1ccc2c(c1)OC[C@@H](Cc1ccc(-c3ccccc3)cc1)[C@@H]2O (single isomer, unassigned) [Example 41, 2-((3R,4S or 3S,4R)-3-([1,1′-Biphenyl]-4-ylmethyl)-4-hydroxychroman-7-yl)-4-fluoro-N-((trifluoromethyl)sulfonyl)benzamide] | 11
14 | CC1(S(=O)(=O)NC(=O)c2ccccc2-c2ccc3c(c2)OC[C@@H](Cc2ccccc2)[C@@H]3O)CC1 (single isomer, unassigned) [Example 21, 2-((3R,4S or 3S,4R)-3-Benzyl-4-hydroxychroman-7-yl)-N-((1-methylcyclopropyl)sulfonyl)benzamide] | 2040
15 | O=C(NS(=O)(=O)C1CCCC1)c1ccccc1-c1ccc2c(c1)OCC(Cc1ccccn1)C2O (stereo not drawn) [Example 19, N-(Cyclopentylsulfonyl)-2-((3,4-trans)-4-hydroxy-3-(pyridin-2-ylmethyl)chroman-7-yl)benzamide] | 48
16 | CC(C)(C)S(=O)(=O)NC(=O)c1ccc(F)cc1-c1ccc2c(c1)OC[C@H](Cc1ccccn1)[C@H]2O (single isomer, unassigned) [Example 14, N-(tert-Butylsulfonyl)-4-fluoro-2-((3S,4R or 3R,4S)-4-hydroxy-3-(pyridin-2-ylmethyl)chroman-7-yl)benzamide] | 2
17 | CS(=O)(=O)NC(=O)c1ccc(F)cc1-c1ccc2c(c1)OC[C@@H](Cc1ccccn1)[C@@H]2O (single isomer, unassigned) [Example 3, 4-Fluoro-2-((3R,4S or 3S,4R)-4-hydroxy-3-(pyridin-2-ylmethyl)chroman-7-yl)-N-(methylsulfonyl)benzamide] | 1720
18 | CC1(S(=O)(=O)NC(=O)c2ccccc2-c2ccc3c(c2)OC[C@H](Cc2coc(-c4ccccc4)n2)[C@H]3O)CC1 (single isomer, unassigned) [Example 45, 2-((3S,4R or 3R,4S)-4-hydroxy-3-((2-phenyloxazol-4-yl)methy)chroman-7-yl)-N-((1-methylcyclopropyl)sulfonyl)benzamide] | 3
19 | CC1(S(=O)(=O)NC(=O)c2ccc(F)cc2-c2ccc3c(c2)OC[C@@H](Cc2ccccn2)[C@@H]3O)CC1 (single isomer, unassigned) [Example 10, 4-Fluoro-2-((3R,4S or 3S,4R)-4-hydroxy-3-(pyridin-2-ylmethyl)chroman-7-yl)-N-((1-methylcyclopropyl)sulfonyl)benzamide] | 870
20 | O=C(NS(=O)(=O)C1CC1)c1ccccc1-c1ccc2c(c1)OC[C@H](Cc1ccccc1)[C@H]2O (single isomer, unassigned) [Example 24, 2-((3S,4R or 3R,4S)-3-Benzyl-4-hydroxychroman-7-yl)-N-(cyclopropylsulfonyl)benzamide] | 17
21 | CC(C)(C)S(=O)(=O)NC(=O)c1ccccc1-c1ccc2c(c1)OC[C@H](Cc1coc(-c3ccccc3)n1)[C@H]2O (single isomer, unassigned) [Example 48, N-(tert-Butylsulfonyl)-2-((3S,4R or 3R,4S)-4-hydroxy-3-((2-phenyloxazol-4-yl)methyl)chroman-7-yl)benzamide] | 5
22 | O=C(NS(=O)(=O)C1CC1)c1ccc(F)cc1-c1ccc2c(c1)OC[C@H](Cc1ccccn1)[C@H]2O (single isomer, unassigned) [Example 16, N-(Cyclopropylsulfonyl)-4-fluoro-2-((3S,4R or 3R,4S)-4-hydroxy-3-(pyridin-2-ylmethyl)chroman-7-yl)benzamide] | 4
23 | CC1(S(=O)(=O)NC(=O)c2ccccc2-c2ccc3c(c2)OC[C@H](Cc2ccccc2)[C@H]3O)CC1 (single isomer, unassigned) [Example 22, 2-((3S,4R or 3R,4S)-3-Benzyl-4-hydroxychroman-7-yl)-N-((1-methylcyclopropyl)sulfonyl)benzamide] | 15
